Test results from patent EP4729522A1, “CRYSTAL FORMS OF SODIUM SALT OF POLYCYCLIC CARBAMOYLPYRIDONE DERIVATIVE, AND PREPARATION METHOD THEREFOR AND USE THEREOF” (Jiangsu Aidea Pharmaceutical Group Co., Ltd., priority 2023, dated 2024).
“Also recorded” adds a separate entry of the source. Structures can show the parent of a compound that is named as a salt.

How the values were obtained:
Type in all cases: physicochemical
[1] = Influencing factors stability test (high temperature, high humidity, lighting; XRPD, HPLC, appearance); details: for Purity: HPLC
Experimental: The petri dishes were then transferred into constant temperature and humidity chambers under three different conditions: high temperature (60 °C, sealed), high relative humidity (RH: 90 ± 5%, 25 °C, open), and lighting (5000 ± 500 Lux, open). The samples were tested on Day 5 and Day 10.

[2] = Hygroscopicity by Dynamic Vapor Sorption (DVS)
Experimental: [table] […] The sample, after DVS testing, was then analyzed by XRPD. Table 8 DVS test results of sodium salts

[3] = High pressure property test (XRPD after pressing); details: pressed at 10 MPa for 5 minutes, 13 mm die
[4] = Simulated granulation test (ethanol wetting and grinding, XRPD); details: wetted with ethanol, then ground
Experimental: The resulting solid and the sample without the addition of wetting ethanol were analyzed by XRPD, respectively.

[5] = Day 5, High humidity (RH 90 ± 5%, 25 °C, open)
[6] = Day 5, High temperature (60 °C, sealed)
[7] = Day 5, Lighting (5000 ± 500 Lux, open)
[8] = Day 10, High humidity (RH 90 ± 5%, 25 °C, open)
[9] = Day 10, High temperature (60 °C, sealed)
[10] = Day 10, Lighting (5000 ± 500 Lux, open)

C[C@H]1N2C(=O)c3c(O)c(=O)c(C(=O)NCc4ccc(F)cc4F)cn3C[C@@H]2OCC12CC2 [Sodium salt crystal form A]
Property ([1]; Day 0): off-white solid | XRPD ([1]; Day 0): Crystal Form A | Purity ([1]; Day 0): 99.57% | Property [1, 5]: off-white solid | XRPD [1, 5]: Crystal Form A | Purity [1, 5]: 99.64% | Property [1, 6]: off-white solid | XRPD [1, 6]: Crystal Form A | Purity [1, 6]: 99.69% | Property [1, 7]: off-white solid | XRPD [1, 7]: Crystal Form A | Purity [1, 7]: 99.68% | Property [1, 8]: off-white solid | XRPD [1, 8]: Crystal Form A | Purity [1, 8]: 99.72% | Property [1, 9]: off-white solid | XRPD [1, 9]: Crystal Form A | Purity [1, 9]: 99.72% | Property [1, 10]: off-white solid | XRPD [1, 10]: Crystal Form A | Purity [1, 10]: 99.72% | weight gain at 80% relative humidity (RH) ([2]; DVS, 80% RH, 25°C): 0.69% | Adsorption ([2]; Relative humidity 0%, adsorption (cycle 1 of 2), 25°C): 0.0000% | Adsorption ([2]; Relative humidity 0%, adsorption (cycle 2 of 2), 25°C): -0.0471% | Desorption ([2]; Relative humidity 0%, desorption (cycle 2 of 2), 25°C): -0.0614% | Desorption ([2]; Relative humidity 0%, first desorption (cycle 1 of 2), 25°C): -0.0471% | Adsorption ([2]; Relative humidity 10%, adsorption (cycle 1 of 2), 25°C): 0.0668% | Adsorption ([2]; Relative humidity 10%, adsorption (cycle 2 of 2), 25°C): 0.0230% | Desorption ([2]; Relative humidity 10%, desorption (cycle 2 of 2), 25°C): 0.0147% | Desorption ([2]; Relative humidity 10%, first desorption (cycle 1 of 2), 25°C): 0.0285% | Adsorption ([2]; Relative humidity 20%, adsorption (cycle 1 of 2), 25°C): 0.1197% | Adsorption ([2]; Relative humidity 20%, adsorption (cycle 2 of 2), 25°C): 0.0818% | Desorption ([2]; Relative humidity 20%, desorption (cycle 2 of 2), 25°C): 0.0758% | Desorption ([2]; Relative humidity 20%, first desorption (cycle 1 of 2), 25°C): 0.0891% | Adsorption ([2]; Relative humidity 30%, adsorption (cycle 1 of 2), 25°C): 0.1725% | Adsorption ([2]; Relative humidity 30%, adsorption (cycle 2 of 2), 25°C): 0.1394% | Desorption ([2]; Relative humidity 30%, desorption (cycle 2 of 2), 25°C): 0.1373% | Desorption ([2]; Relative humidity 30%, first desorption (cycle 1 of 2), 25°C): 0.1498% | Adsorption ([2]; Relative humidity 40%, adsorption (cycle 1 of 2), 25°C): 0.2282% | Adsorption ([2]; Relative humidity 40%, adsorption (cycle 2 of 2), 25°C): 0.2001% | Desorption ([2]; Relative humidity 40%, desorption (cycle 2 of 2), 25°C): 0.2149% | Desorption ([2]; Relative humidity 40%, first desorption (cycle 1 of 2), 25°C): 0.2239% | Adsorption ([2]; Relative humidity 50%, adsorption (cycle 1 of 2), 25°C): 0.2857% | Adsorption ([2]; Relative humidity 50%, adsorption (cycle 2 of 2), 25°C): 0.2641% | Desorption ([2]; Relative humidity 50%, desorption (cycle 2 of 2), 25°C): 0.3200% | Desorption ([2]; Relative humidity 50%, first desorption (cycle 1 of 2), 25°C): 0.3320% | Adsorption ([2]; Relative humidity 60%, adsorption (cycle 1 of 2), 25°C): 0.3539% | Adsorption ([2]; Relative humidity 60%, adsorption (cycle 2 of 2), 25°C): 0.3365% | Desorption ([2]; Relative humidity 60%, desorption (cycle 2 of 2), 25°C): 0.5185% | Desorption ([2]; Relative humidity 60%, first desorption (cycle 1 of 2), 25°C): 0.5250% | Adsorption ([2]; Relative humidity 70%, adsorption (cycle 1 of 2), 25°C): 0.5505% | Adsorption ([2]; Relative humidity 70%, adsorption (cycle 2 of 2), 25°C): 0.5627% | Desorption ([2]; Relative humidity 70%, desorption (cycle 2 of 2), 25°C): 0.6037% | Desorption ([2]; Relative humidity 70%, first desorption (cycle 1 of 2), 25°C): 0.6126% | Adsorption ([2]; Relative humidity 80%, adsorption (cycle 1 of 2), 25°C): 0.6895% | Adsorption ([2]; Relative humidity 80%, adsorption (cycle 2 of 2), 25°C): 0.6928% | Desorption ([2]; Relative humidity 80%, desorption (cycle 2 of 2), 25°C): 0.7082% | Desorption ([2]; Relative humidity 80%, first desorption (cycle 1 of 2), 25°C): 0.7176% | Adsorption ([2]; Relative humidity 90%, adsorption (cycle 1 of 2), 25°C): 0.9012% | Adsorption ([2]; Relative humidity 90%, adsorption (cycle 2 of 2), 25°C): 0.8889% | Desorption ([2]; Relative humidity 90%, desorption (cycle 2 of 2), 25°C): 0.8889% | Desorption ([2]; Relative humidity 90%, first desorption (cycle 1 of 2), 25°C): 0.9012% | After DVS testing Crystal form change ([2]; XRPD after DVS testing): did not change; also recorded: Crystal form A, unchanged | crystal form after the high-pressure test (XRPD) [3]: did not change | change in crystal form after ethanol wetting and grinding (XRPD) [4]: did not exhibit a change in crystal form
